Laboratory results reported in patent US6444434B1, “FVIIa/TF activity inhibiting compounds” (Novo Nordisk A/S, priority 1999, dated 2002).
pIC50: −log10 of the molar value. Read-outs that look alike come from different tables or passages of the source.

Experiments:
FXa = FXa (Homo sapiens, UniProt P00742); assay: FXa amidolytic assay; type: biochemical; conditions: 1 nM FXa, 1 mM S-2765; read-out: FX amidolytic IC50 FX
Method: (§1) Compound solutions and buffer are the same as in the above FX activation assay. 170 microliters of FXa (1.17 nM in buffer), 10 microliters of test compound (various concentrations in DMSO) and 20 microliters of substrate S-2765 (10 mM in water) is mixed in a microtiter plate well. This gives-final concentrations of FXa and S-2765 of 1 nM and 1 mM, respectively. The absorbance at 405 nm is measured continuously for 20 minutes. The degree of inhibition is calculated from the slope of the absorbance curve compared to the curve obtained when using DMSO without test compound.
as §1, with “gives final” for “gives-final”

[1] = system: citrated normal human plasma; assay: FVIIa/TF-initiated plasma clotting assay; conditions: ratio of clotting time with/without compound; final compound concentration 0.33 mM; thromboplastin (Innovin)
Method: The test compounds, 20 mM in DMSO, are diluted in citrated normal human plasma just before the analysis (1+19) and placed in the sample carousel. 55 μl sample (compound in plasma) is mixed with 55 μl of thromboplastin (Innovin, Dade) and incubated for 5 min. The clotting reaction is started by adding 55 μl of a 25-mM CaCl2 solution, yielding a final compound concentration of 0.33 mM. The clotting time is measured using an ACL 300 R coagulometer. The ratio between the clotting time in the presence and absence of test compound is used to quantify the anticoagulant efficiency.

TF/FVIIa = target: T1, TF/FVIIa (Homo sapiens, UniProt P08709); assay: FVIIa/TF amidolytic assay; type: biochemical; conditions: 10 nM FVIIa, 25 nM soluble TF, 1 mM S-2288
T1 construct: Single-chain FVII may be converted to two-chain FVIIa by factor Xa; 20 microliters of soluble TF (250 nM in buffer)
T1 sequence (P08709 61-212 limits assumed): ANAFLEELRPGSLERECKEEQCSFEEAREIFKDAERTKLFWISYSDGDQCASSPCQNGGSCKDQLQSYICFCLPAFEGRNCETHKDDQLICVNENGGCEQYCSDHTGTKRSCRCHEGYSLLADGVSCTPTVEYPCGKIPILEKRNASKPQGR
T1 sequence (P08709 213-466 limits assumed): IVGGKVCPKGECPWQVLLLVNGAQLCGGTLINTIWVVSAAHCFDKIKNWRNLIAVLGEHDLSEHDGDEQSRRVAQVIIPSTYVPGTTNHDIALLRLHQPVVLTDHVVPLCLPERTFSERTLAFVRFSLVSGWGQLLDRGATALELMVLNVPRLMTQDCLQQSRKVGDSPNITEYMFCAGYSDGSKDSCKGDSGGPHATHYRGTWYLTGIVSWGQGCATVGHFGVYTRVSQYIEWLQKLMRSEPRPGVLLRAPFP
Method: (§2) Compound solutions and buffer are the same as in the above FX activation assay. 150 microliters of FVIIa (13.3 nM in buffer), 20 microliters of soluble TF. (250 nM in buffer), 10 microliters of test compound (various concentrations in DMSO) and 20 microliters of substrate S-2288 (10 mM in water) is mixed in microtiter plate well. This gives final concentrations of FVII(a, TF and S-2288 of 10 nM, 25 nM and 1 mM, respectively. The absorbance at 405 nm is measured continuously for 20 minutes. The degree of inhibition is calculated from the slope of the absorbance curve compared to the curve obtained when using DMSO without test compound.
as §2, with “TF” for “TF.”, “DM80)” for “DMSO)”, “FVIIa,” for “FVII(a,”

[2] = target: T2, FVIIa/TF-catalyzed activation of FX (Homo sapiens, UniProt P08709); assay: FX activation assay (FVIIa/TF-catalyzed FX activation); type: biochemical; conditions: for pIC50: 100 pM FVIIa, 5 pM TF, 175 nM FX, FXa read with S-2765, read-out: TF/FVII/FX (FX activation) IC50 FXa; for IC50: second part of table, Examples 14-22, read-out: IC50 (μM) FX activation by FVIIa/TF
T2 construct: Single-chain FVII may be converted to two-chain FVIIa by factor Xa

[3] = target: T3, FVIIa/TF-catalyzed activation of FX (Homo sapiens, UniProt P08709+P13726); assay: as above; type: biochemical; conditions: second part of table, Examples 14-22
T3 construct: Single-chain FVII may be converted to two-chain FVIIa by factor Xa
T3 sequence (P13726 33-295, one chain of several): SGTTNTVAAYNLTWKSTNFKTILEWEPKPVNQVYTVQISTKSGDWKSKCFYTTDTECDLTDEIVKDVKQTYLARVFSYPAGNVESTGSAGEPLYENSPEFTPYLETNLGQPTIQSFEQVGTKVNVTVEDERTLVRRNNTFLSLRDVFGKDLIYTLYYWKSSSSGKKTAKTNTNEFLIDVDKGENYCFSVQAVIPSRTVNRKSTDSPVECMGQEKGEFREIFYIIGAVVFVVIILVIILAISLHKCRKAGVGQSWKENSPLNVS

T2 sequence (P13726 33-295, one chain of several, further chain): as the sequence (P13726 33-295, one chain of several) above
Chain of FXa (P00742 41-179 limits assumed): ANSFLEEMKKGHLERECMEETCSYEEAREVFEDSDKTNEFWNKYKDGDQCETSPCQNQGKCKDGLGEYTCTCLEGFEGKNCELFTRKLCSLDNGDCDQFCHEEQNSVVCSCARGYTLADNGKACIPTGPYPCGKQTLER
Chain of FXa (P00742 235-488 limits assumed): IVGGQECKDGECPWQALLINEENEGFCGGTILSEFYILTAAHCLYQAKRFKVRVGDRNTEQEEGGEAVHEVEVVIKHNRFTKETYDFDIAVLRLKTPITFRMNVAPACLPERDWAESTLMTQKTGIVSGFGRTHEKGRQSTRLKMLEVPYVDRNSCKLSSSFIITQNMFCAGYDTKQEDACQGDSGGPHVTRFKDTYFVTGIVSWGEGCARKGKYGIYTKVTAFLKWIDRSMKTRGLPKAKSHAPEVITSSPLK

`COc1ccc(/C=C2\c3ccccc3-c3ccc(C(=O)CCCCN4CCCCC4)cc32)cc1OC` [Example 12, 1-[9-(3,4-Dimethoxy-benzylidene)-9H-fluoren-2-yl]-5-piperidin-1-yl-pentan-1-one] gave a pIC50 (FXa) of less than 3.70, a Clot ratio [1] of 1.2 and a pIC50 (TF/FVIIa) of less than 3.70. It also gave a pIC50 [2] of 5.15.
`CCN(CC)CCCC(C)Nc1nc(/C=C/c2ccc(Br)cc2)nc2cc(Cl)ccc12` (stereo not drawn) [Example 16, N4-{2-[2-(4-bromo-phenyl)-vinyl]-7-chloro-quinazolin-4-yl}-N1,N1-diethyl-pentane-1,4-diamine] showed an IC50 [2] of less than 20 µM.
In the case of `CCC(=C(c1ccc(OC)cc1)c1ccc(OC)cc1)c1cn(CC(O)CN2CCCC2)c2ccccc12` (stereo not drawn) [Example 11, 1-{3-[1-Ethyl-2,2-bis-(4-methoxy-phenyl)-vinyl]-indol-1-yl}-3-pyrrolidin-1-yl-propan-2-ol], the pIC50 (FXa) was less than 3.70, the Clot ratio [1] was 1.64 and the pIC50 (TF/FVIIa) was less than 3.70. The pIC50 [2] was 5.11.
`CN(C)CCCNC(=O)c1cc2cc(OCc3ccccc3)ccc2n1Cc1ccc(Cl)c(Cl)c1` [Example 20] was tested, and the IC50 [2] was less than 20 µM.
In the case of `CC(C)Cc1ccc(C(C)CNC(=N)C(C)c2ccc(CC(C)C)cc2)cc1` (stereo not drawn) [Example 9, 2-(4-Isobutyl-phenyl)-N-[2-(4-isobutyl-phenyl)-propyl]-propionamidine], the pIC50 (FXa) was less than 3.70, the Clot ratio [1] was greater than 3 and the pIC50 (TF/FVIIa) was less than 3.70. The pIC50 [2] was 4.96.
In the case of `CN(C)CCNCC(O)CN1CCn2c3c(c4cc(C5CCCCC5)ccc42)CCCC31` (stereo not drawn) [Example 6, 1-(8-Cyclohexyl-1,2,3a,4,5,6-hexahydro-pyrazino[3,2,1-jk]carbazol-3-yl)-3-(2-dimethylamino-ethylamino)-propan-2-ol], the pIC50 (FXa) was less than 3.70, the Clot ratio [1] was greater than 3 and the pIC50 (TF/FVIIa) was less than 3.70. For the same compound, the pIC50 [2] was 4.77.
Compound `CN1CCN(CC(=O)N2CCn3c4c(c5cc(C6CCCCC6)ccc53)CCCC42)CC1` (stereo not drawn) [Example 8, 1-(8-Cyclohexyl-1,2,3a,4,5,6-hexahydro-pyrazino[3,2,1-jk]carbazol-3-yl)-2-(4-methyl-piperazin-1-yl)-ethanone] has a pIC50 (FXa) of less than 3.70, a Clot ratio [1] of 2.72 and a pIC50 (TF/FVIIa) of less than 3.70. The pIC50 [2] was 4.85.
In the case of `CCC(=C(c1ccc(OC)cc1)c1ccc(OC)cc1)c1cn(CC(O)CN2CCCC2)c2ccccc12` (stereo not drawn) [Example 22, 1-{3-[1-ethyl-2,2-bis-(4-methoxy-phenyl)-vinyl]-indol-1-yl}-3-pyrrolidin-1-yl-propan-2-ol], the IC50 [2] was less than 20 µM.
In the case of `CN(C)CCc1cn(Cc2ccc(Cl)c(Cl)c2)c2cc(Cl)c(OCc3ccccc3)cc12` [Example 21, N,N-dimethyl-1-(3,4-dichlorobenzyl)-5-benzyloxy-6-chlorotrypamine], the IC50 [3] was less than 20 µM.
Work on `COc1cccc(/C=N\Nc2nc(Nc3ccccc3)nc(Nc3ccc(C)cc3C)n2)c1O` [Example 7, 2-{[4-(2,4-Dimethyl-phenylamino)-6-phenylamino-[1,3,5]triazin-2-yl]-hydrazonomethyl}-6-methoxy-phenol] yielded a pIC50 (FXa) of less than 3.70, a Clot ratio [1] of 1.03 and a pIC50 (TF/FVIIa) of less than 3.70. For the same compound, the pIC50 [2] was 4.77.
`CN(C)C1CCN(Cc2c[nH]c3ccc(OCc4ccccc4)cc23)CC1` [Example 18, N-[5-benzyloxy-1H-indol-3-ylmethyl]-4-dimethylaminopiperidine] gave an IC50 [2] of less than 20 µM.
With `NC(CC(=O)NC(Cc1c[nH]c2ccccc12)C(=O)O)(P(=O)(O)O)P(=O)(O)O` (stereo not drawn) [Example 19, 2-(3-amino-3,3-bis-phosphono-propionylamino)-3-(1H-indol-3-yl)-propionic acid] the IC50 [2] was less than 20 µM.
With `CCCCCCCOc1ccc(/C(=N\C2CC(C)(C)NC(C)(C)C2)c2ccccc2)cc1` [Example 13, [(4-Heptyloxy-phenyl)-phenyl-methylene]-(2,2,6,6-tetramethylpiperidin-4-yl)-amine] the pIC50 (FXa) was less than 3.70, the Clot ratio [1] was 2.06 and the pIC50 (TF/FVIIa) was less than 3.70. It also gave a pIC50 [2] of 5.24.
`CCN(CC)CCCC(C)Nc1nc(/C=C/C=C/c2ccccc2)nc2cc(Cl)ccc12` (stereo not drawn) [Example 14, N-[7-chloro-2-(4-phenyl-buta-1,3-dienyl)-quinazolin-4-yl]-5-N,N-diethyl-aminopentane-2-amine] showed an IC50 [2] of less than 20 µM.
`N=c1n(CCN2CCCC2)c2ccccc2n1CC(O)COc1ccc(Cl)cc1` (stereo not drawn) [Example 5, 1-(4-Chloro-phenoxy)-3-[2-imino-3-(2-pyrrolidin-1-yl-ethyl)-2,3-dihydro-benzoimidazol-1-yl]-propan-2-ol] gave a pIC50 (FXa) of less than 3.70, a Clot ratio [1] greater than 3 and a pIC50 (TF/FVIIa) of less than 3.70. It also gave a pIC50 [2] of 4.74.
`CCCCCCCCCCCCCCCCn1c2c(c(=N)c3c1CCC3)CCC2` [Example 10, 4-Hexadecyl-2,3,4,5,6,7-hexahydro-1H-4-aza-s-indacen-8-ylideneamine] gave a pIC50 (FXa) of less than 3.70, a Clot ratio [1] of 2.84 and a pIC50 (TF/FVIIa) of less than 3.70. It also gave a pIC50 [2] of 5.11.
`CCN(CC)CCCC(C)Nc1nc(C=Cc2ccc(Br)cc2Br)nc2cc(Cl)ccc12` (stereo not drawn) [Example 15, N4-{7-chloro-2-[2-(2,4-dibromo-phenyl)-vinyl]-quinazolin-4-yl}-N1,N1-diethyl-pentane-1,4-diamine] was tested, and the IC50 [2] was less than 20 µM.
Compound `CN(C)CCCN(C)Cc1cn(Cc2ccc(Cl)c(Cl)c2)c2cc(Cl)c(OCc3ccccc3)cc12` [Example 17, N-[5-benzyloxy-6-chloro-1-(3,4-dichlorobenzyl)-1H-indol-3-ylmethyl]-N,N′N′-trimethylpropan-1,3-diamine] has an IC50 [2] of less than 20 µM.
